Reference: patent publication US20210346331A1, “TRPV4 ACTIVITY INHIBITOR” (KAO CORPORATION, priority 2018, published 2021)

Molecular target: T1, human TRPV4 (Homo sapiens, UniProt Q9HBA0)
T1 construct: expressed in transfected cells; host or cells: HeLa cells, transient transfection with pcDNA3.1 Directional TOPO vector
Experiment: Measurement of intracellular calcium ion influx activity in human TRPV4 expressing cells (HeLa, Fluo4) stimulated with TRPV4 agonist GSK1016790a
Type: cell-based
Conditions: for Intracellular Ca^2+ influx rate (%): GSK + solvent = 100%, human TRPV4 expressing HeLa cells, n = 3, Mean ± S.E.; for calcium ion influx caused by the TRPV4 agonist (result in words): summary of Table 1, Dunnett's test vs GSK1016790a + solvent
Description: Polymerase chain reaction (PCR) was performed under the following conditions using a primer set comprising the oligonucleotides represented by the following base sequences which were synthesized with reference to published human TRPV4 gene sequences using a cDNA obtained by reverse-transcribing a totalRNA extracted from the Hutu-80 cell, as a template.
The obtained PCR product was purified using the High Pure PCR Product Purification Kit. The human TRPV4 gene expression vector was produced using the purified PCR product and the pcDNA3.1 Directional TOPO Expression Kit.
The HeLa cell was cultured using the DMEM/F12 medium containing 10% of fetal bovine serum. The HeLa cell was seeded in a T-75 cell culture flask at 5×10^5 cells/Flask. After three days of culture, the human TRPV4 gene expression vector (8 μg) produced in the above (2) was transfected into the cell using the TransIT-HeLaMONSTER Transfection Kit and cultured for 1 day.
The cell was detached using the Detachin and seeded at a density of 1.5×10^4 cells/90 μL/well in the DMEM/F12 medium containing 10% of fetal bovine serum on the 96 well Optical bottom plate and cultured for further 1 day.
Measurement of the intracellular calcium ion influx activity was performed using the Calcium Kit II—fluo 4. After the Loading buffer containing the Fluo4-AM and the Hanks' balanced salt solution were mixed at a ratio of 1:1, 180 μL/well of the mixture was added to the human TRPV4 expressing cell produced in the above (3) and incubated at 37° C. for 1 hour. Thereafter, fluorescence intensity (excitation wavelength: 488 nm, fluorescence wavelength: 524 nm) was measured using a fluorescent plate reader FDSS3000 (Hamamatsu Photonics K.K.) at 37° C. every 2 seconds. The GSK1016790a which is the TRPV4 agonist and each of the 4,3′-di-O-methyl-rosmarinic acid, 3′,4′-di-O-methyl-rosmarinic acid, 4,4′-di-O-methyl-rosmarinic acid, and 3,4-di-O-methyl-rosmarinic acid solution prepared in Production Examples as samples were diluted with the Hanks' balanced salt solution, 20 μL/well of the mixed solution thereof (they were mixed just before the addition) was added to the cell after 30 seconds after the start of the measurement, and the change of the fluorescence intensity was measured every 2 seconds until 300 seconds. The GSK1016790a was added so as to have a final concentration of 3 nM.
As a positive control of the TRPV4 activity inhibition, HC067047, which is the TRPV4 antagonist, was added to the cell in a final concentration of 10 μM.
The TRPV4 activity of the samples was calculated by the following equation, assuming that the influx rate of calcium ions by the treatment of the GSK1016790a, which is the TRPV4 agonist, is 100%.
Influx rate of calcium ions (%)=[(Fmax/F0)−(FmaxC2/F0C2)]/[(FmaxC1/FOC1)−(FmaxC2/F0C2)]×100 (Expression 1)
Fmax: The maximum fluorescence intensity of the well to which the GSK1016790a and a sample were added, at from 0 to 300 seconds after the start of the measurement
FmaxC1: The maximum fluorescence intensity of the well to which the GSK1016790a and a solvent were added, at from 0 to 300 seconds after the start of the measurement
FmaxC2: The maximum fluorescence intensity of the well to which only a solvent was added, at from 0 to 300 seconds after the start of the measurement
F0: The fluorescence intensity of the same well as Fmax, immediately after the start of the measurement
F0C1: The fluorescence intensity of the same well as FmaxC1, immediately after the start of the measurement
F0C2: The fluorescence intensity of the well to which only a solvent was added, immediately after the start of the measurement
The influx rates of calcium ions (n=3 for each group) in the case of adding samples were tested using the Dunnett's test by comparing with the case of adding the GSK1016790a+a solvent. […] The results were presented as the average value (Mean)±standard error (S.E.).

[1] = sample 30 μM + GSK1016790a 3 nM
[2] = sample 100 μM + GSK1016790a 3 nM

T1 sequence (Q9HBA0 whole entry): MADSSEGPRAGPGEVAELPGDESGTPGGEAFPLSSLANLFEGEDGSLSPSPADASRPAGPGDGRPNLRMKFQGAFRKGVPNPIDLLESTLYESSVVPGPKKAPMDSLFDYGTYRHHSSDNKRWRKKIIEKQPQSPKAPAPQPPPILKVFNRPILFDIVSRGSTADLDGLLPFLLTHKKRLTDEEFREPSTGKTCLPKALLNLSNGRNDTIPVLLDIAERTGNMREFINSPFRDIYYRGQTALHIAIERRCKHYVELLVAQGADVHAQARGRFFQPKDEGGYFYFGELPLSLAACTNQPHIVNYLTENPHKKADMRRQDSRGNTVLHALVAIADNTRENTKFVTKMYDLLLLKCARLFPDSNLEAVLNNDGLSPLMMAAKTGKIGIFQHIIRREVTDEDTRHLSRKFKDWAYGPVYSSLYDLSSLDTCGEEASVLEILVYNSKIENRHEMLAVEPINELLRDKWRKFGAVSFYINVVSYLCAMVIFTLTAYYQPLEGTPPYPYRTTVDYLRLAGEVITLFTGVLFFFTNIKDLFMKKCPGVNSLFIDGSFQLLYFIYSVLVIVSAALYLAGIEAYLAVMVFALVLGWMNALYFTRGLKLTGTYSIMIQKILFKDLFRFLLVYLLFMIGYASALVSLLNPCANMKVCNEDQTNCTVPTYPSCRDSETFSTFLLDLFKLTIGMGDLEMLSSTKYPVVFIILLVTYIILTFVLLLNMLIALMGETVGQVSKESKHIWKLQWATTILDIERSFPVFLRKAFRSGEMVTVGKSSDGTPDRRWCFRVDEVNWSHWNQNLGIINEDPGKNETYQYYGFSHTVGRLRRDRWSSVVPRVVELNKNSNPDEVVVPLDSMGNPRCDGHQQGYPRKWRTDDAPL

Row | Structure (SMILES) | Intracellular Ca^2+ influx rate (%) [1] | Intracellular Ca^2+ influx rate (%) [2] | calcium ion influx caused by the TRPV4 agonist (result in words) | Intracellular Ca^2+ influx rate (%) (sample 10 μM + GSK1016790a 3 nM)
1 | COc1ccc(CC(OC(=O)/C=C/c2ccc(O)c(O)c2)C(=O)O)cc1OC (stereo not shown) [3,4-DiMe-RA, (E)-3-(3,4-dimethoxyphenyl)-2-{[3-(3,4-dihydroxyphenyl)acryloyl]oxy}propionic acid] | 80.66 ± 1.58 (P < 0.01) % | 78.99 ± 3.27 (P < 0.01) % | significantly reduced the calcium ion influx | 
2 | COc1ccc(/C=C/C(=O)OC(Cc2ccc(O)c(O)c2)C(=O)O)cc1OC (stereo not shown) [3′,4′-DiMe-RA, (E)-3-(3,4-dihydroxyphenyl)-2-{[3-(3,4-dimethoxyphenyl)acryloyl]oxy}propionic acid] | 78.81 ± 3.67 (P < 0.01) % | 81.74 ± 1.18 (P < 0.01) % | significantly reduced the calcium ion influx | 
3 | COc1ccc(CC(OC(=O)/C=C/c2ccc(O)c(OC)c2)C(=O)O)cc1O (stereo not shown) [4,3′-DiMe-RA, (E)-3-(3-hydroxy-4-methoxyphenyl)-2-{[3-(4-hydroxy-3-methoxyphenyl)acryloyl]oxy}propionic acid] | 85.31 ± 8.14 (P < 0.05) % | 81.02 ± 1.18 (P < 0.01) % | significantly reduced the calcium ion influx | 
4 | COc1ccc(/C=C/C(=O)OC(Cc2ccc(OC)c(O)c2)C(=O)O)cc1O (stereo not shown) [4,4′-DiMe-RA, (E)-3-(3-hydroxy-4-methoxyphenyl)-2-{[3-(3-hydroxy-4-methoxyphenyl)acryloyl]oxy}propionic acid] | 83.19 ± 4.69 (P < 0.05) % | 75.87 ± 3.39 (P < 0.001) % | significantly reduced the calcium ion influx | 
5 | Cc1c(C(=O)Nc2cccc(C(F)(F)F)c2)cc(-c2ccccc2)n1CCCN1CCOCC1 [HC067047, reference compound] |  |  |  | 0.63 ± 0.14 (P < 0.001) %
